Laboratory results from US9802897B2, “Amidopyridinol derivative or pharmaceutically acceptable salt thereof and pharmaceutical composition comprising same as active component” (Research Cooperation Foundation of Yeungnam University, priority 2013, dated 2017).
Like-named read-outs stand apart in the source and are kept apart here. Marks after values point to notes of the source that are not given here.

What was measured:
[1] = test system: VEGF-induced angiogenesis in chicken chorioallantoic membrane (CAM); experiment: CAM analysis of VEGF-induced angiogenesis; format: in vivo; conditions: VEGF (20 ng/CAM) + Compound (0.01 nmol/CAM), number of blood vessels after 3 days; for inhibition in vivo at 0.01 nmol/CAM: Gallus gallus, 72 h, read-out: Inhibitory rates (%)
Protocol: To confirm inhibitory effects on angiogenesis through in vivo experiments, the chorioallantoic membrane (CAM) analysis was carried out (refer to Nguyen M et al., Microvascular Res., 47, pp 31-40, 1994). A fertilized egg of a chicken was cultured in conditions maintaining a temperature of 37° C. and relative humidity of 55%. On the 10th day of the culturing, a first small hole was made on an air sac part using a hypodermic needle (Green Cross Medical Corp., Korea), and then, a second hole was made on a flat part of the fertilized egg to make a window thereon. Air was removed through the first hole, i.e., the air sac part, and accordingly, the CAM was separated from the shell of the fertilized egg. Then, a grinding wheel (Multipro 395JA, Dremel, Mexico) was used to cut the air sac part, thereby making a window thereon. Next, the whatman filter disk #1 (Whatman Company, USA) was treated with 3 mg/mL of cortisone acetate, dried, and then, wet by VEGF at a concentration of 20 ng/CAM. The filter disk was placed on blood vessels through the window, and then, compounds prepared according to Examples above were each dissolved in DMSO, diluted with PBS, and then, treated for each concentration. After 3 days of treating the compounds, the CAM part on which the filter disk was placed was isolated, and then, washed with PBS. The Stemi SV6 stereomicroscope (Carl Zeiss, Germany) and the Image-Pro Plus software (Media Cybernetics; Silver Spring, Md., USA) were used to capture images of the CAM part, so as to measure the number of the blood vessels and to analyze data obtained therefrom.

HT-29 cells / U937 cells = experiment: TNF-α-induced adhesion of HT-29 intestinal epithelial cells and U937 mononuclear cells; format: cell-based, human; conditions: 1 μM, pre-treated 1 hour, TNF-α 10 ng/ml; for inhibition at 1 µM: Homo sapiens, read-out: Inhibitory rates (%)
Protocol: HT-29 cells were cultured in a 24-well plate at a concentration of […] cells/cm^2, and meanwhile, amidopyridinol compounds 8a to 8z were pre-treated for 1 hour at each concentration in a serum-free medium supplemented only with 1% PS. Next, 10 ng/ml of TNF-α was treated therewith to allow a reaction at a temperature of 37° C. for 3 hours. After the completion of the reaction, the medium of the HT-29 cells was removed, and then, the HT-29 cells were washed with PBS once. Afterwards, U937 cells, which were treated and reacted with 10 μg/mL of BCECF-AM at a temperature of 37° C. for 30 minutes, were allowed to react with the HT-29 cells at temperature of 37° C. for 1 hour. Then, to remove U937 cells that were not adhered to the HT-29 cells, the reacted cells were washed with PBS twice. In terms of cell dissolution, 0.1% Triton X-100 in 0.1M Tris was allowed to react with the cells for 30 minutes at room temperature, and then, the cells were subjected to quantify by measuring fluorescence thereof using the Fluostar optima microplate reader (BMG Labtechnologies, Germany).

cathepsin S = experiment: RT-PCR of cathepsin S gene expression in MDA-MB-231 cells; format: cell-based; conditions: for effects for reducing expression of cathepsin S genes (in words): MDA-MB-231
Protocol: Each compound of the present invention was treated with breast cancer cells (1×10^5 cell/cm^2), e.g., MDA-MB-231, and then, cultured at a temperature of 37° C. for 24 hours in a cell incubator. Afterwards, a trizole reagent was used to extract the entire mRNA therefrom. 24 hours later, the culture medium was removed therefrom, 1 mL of the triazole reagent was added to each well, and then, the cell elusion was transferred to a 1.5 mL tube. After 200 μl of chloroform was added to each sample, the samples were subjected to centrifugation at a temperature of 4° C., at 12,000 g, for 15 minutes. 500 μl of the supernatant obtained therefrom was transferred to a new tube. After 500 μl of isopropylalcohol was added to each sample, the samples were subjected to centrifugation at a temperature of 4° C., at 12,000 g, for 15 minutes. The supernatant obtained therefrom was removed from each sample, and then, the samples were washed with 75% ethanol to clean mRNA while the precipitants were dried. Then, mRNA extracted therefrom was dissolved in RNase-free water, followed by being heated at a temperature of 55° C. for 10 minutes.
After the RNA quantification, the GoScript™ reverse transcription system (Promega Corporation, Madison, Wis., USA) was used to synthesize cDNA. Here, PCR was performed by using TaKaRa Taq™ (Takara bio Inc., Shiga, Japan), wherein a primer set of cathepsin S consists of a forward primer having SEQ ID NO: 1 (forward sequence: 5′-GCAGTGGCACAGTTGCATAA-3′) and a reverse primer having SEQ ID NO: 2 (reverse sequence: 5′-AGCACCACAAGAACCCATGT-3′). After the PCR product was subjected to agarose gel electrophoresis, the PCR product was stained with ethidium bromide (0.5 μg/ml), thereby obtaining images thereof by using the gel imaging system (UVP, Cambridge, UK). Here, the PCR product was quantified based on glyceraldehyde 3-phosphate dehydrogenase (GAPDH). A GAPDH primer used herein consists of a forward primer having SEQ ID NO: 3 (forward sequence: 5′-GGTGAAGGTCGGAGTCAACG-3′) and a reverse primer having SEQ ID NO: 4 (reverse sequence: 5′-CAAAGTTGTCATGGATGACC-3′).
Furthermore, to screen other amidopyridinol derivatives that inhibit metastasis of breast cancer cells, inhibitory effects on expression of cathepsin S genes were reviewed by treating 1 μM of each compound, in the same manner as in Experimental Example 9.

MDA-MB-231 cells = experiment: Transwell invasion assay of MDA-MB-231 breast cancer cells; format: cell-based; conditions: MDA-MB-231; for inhibition at 0.01 µM / inhibition at 0.1 µM / inhibition at 1 µM / inhibition at 10 µM: Homo sapiens, read-out: Inhibition rates of invasion of cancer cells (%)
Protocol: The invasion assay was performed by using the transwell insert (BD FALCON, Bedford, USA) equipped with a 8 μm pore-sized filter. An upper part of the transwell insert filter was coated with 20 μl of matrigel (1 mg/ml) while a bottom part of the same was coated with 30 μl of type I collagen (0.5 mg/ml). The MDA-MB-231 cells (5×10^5 cells/100 μl) were added to the insert chamber, and then, each inhibitor was also added thereto. To induce invasion of the cells, a medium supplemented with 5% FBS was added to each well of the bottom chamber to allow a reaction at a temperature of 37° C. in a cell incubator. 18 hours later, the cells remained after removing the solution in the insert chamber were removed by using a cotton swab, whereas cells at the bottom of the membrane were fixed with methanol and stained with hematoxylin and eosin. The cells present at the membrane were observed through a microscope, and the number of the cells was counted in the selected 5 fields at the resolution of 200×.
According to the same manner as in Experimental Example 7, inhibitory effects of the amidopyridinol derivatives synthesized in Examples above on invasion of breast cancer cells, e.g., MDA-MB-231, were reviewed. Here, to compare with, inhibitory effects of aminopyridinol derivatives, e.g., 6-amino-2,4,5-trimethylpyridine-3-ol (BJ-1101) and 6-diphenylamino-2,4,5-trimethylpyridine-3-ol (BJ-1201), on invasion of breast cancer cells, e.g., MDA-MB-231, were reviewed.

[2] = Homo sapiens, MDA-MB-231, 24 h, 1 μM, MDA-MB-231, 24 hours, RT-PCR, read-out: Inhibition rate of expression of cathepsin S (%)
[3] = Homo sapiens, MDA-MB-231, 24 h, screening, 1 μM of each compound, MDA-MB-231, RT-PCR, read-out: Inhibition rate of expression of cathepsin S (%)
[4] = screening, 1 μM of each compound, MDA-MB-231, RT-PCR

Compound | inhibition in vivo at 0.01 nmol/CAM [1] | inhibition at 1 µM (HT-29 cells / U937 cells) | inhibition at 1 µM (cathepsin S; [2]) | inhibition at 0.01 µM (MDA-MB-231 cells) | inhibition at 0.1 µM (MDA-MB-231 cells) | inhibition at 1 µM (MDA-MB-231 cells) | inhibition at 10 µM (MDA-MB-231 cells) | inhibitory effects on invasion of breast cancer cells (in words) (MDA-MB-231 cells) | inhibition at 1 µM (cathepsin S; [3]) | also measured
Cc1nc(NC(=O)c2cccs2)c(C)c(C)c1O [Compound 8q, N-(5-hydroxy-3,4,6-trimethylpyridine-2-yl)thiophene-2-carboxamide] | 74.8 ± 13.2% | 68.4% | 57 ± 1.55% | 47.6 ± 18.1% | 59 ± 10.4% | 65.8 ± 5.03% | 67.8 ± 4.25% | showed inhibitory effects on invasion of breast cancer cells | – | inhibition at 0.01 µM (cathepsin S; Homo sapiens, MDA-MB-231, 24 h, 0.01 μM, MDA-MB-231, 24 hours, RT-PCR, read-out: Inhibition rate of expression of cathepsin S (%)): 42 ± 1.21%; inhibition at 0.1 µM (cathepsin S; Homo sapiens, MDA-MB-231, 24 h, 0.1 μM, MDA-MB-231, 24 hours, RT-PCR, read-out: Inhibition rate of expression of cathepsin S (%)): 52 ± 1.68%; effects for reducing expression of cathepsin S genes (in words) (cathepsin S): the most effects for reducing expression of cathepsin S genes
CCC(CC)C(=O)Nc1nc(C)c(O)c(C)c1C [Compound 8r, 2-ethyl-N-(5-hydroxy-3,4,6-trimethylpyridine-2-yl)butanamide] | – | 4.2% | – | – | – | – | – | – | 3.9 ± 0.22% | –
Cc1nc(N(c2ccccc2)c2ccccc2)c(C)c(C)c1O [BJ-1201, 6-diphenylamino-2,4,5-trimethylpyridine-3-ol] | – | – | 2.7 ± 0.12% | 2.52 ± 18.7% | 0% | 1.78 ± 22.1% | 1.96 ± 6.78% | no inhibitory effects on invasion of breast cancer cells | – | effects for reducing expression of cathepsin S genes (in words) (cathepsin S): no effects for reducing expression of cathepsin S genes
Cc1cc(C)c(C(=O)Nc2nc(C)c(O)c(C)c2C)c(C)c1 [Compound 8u, N-(5-hydroxy-3,4,6-trimethylpyridine-2-yl)-2,4,6-trimethylbenzamide] | – | 30.4% | – | – | – | – | – | – | 2.9 ± 0.08% | –
Cc1nc(NC(=O)c2ccc(F)cc2)c(C)c(C)c1O [Compound 8l, N-(5-hydroxy-3,4,6-trimethylpyridine-2-yl)-4-fluorobenzamide] | 75.3 ± 6.3% | 13.7% | 0% | 8.57 ± 21.5% | 11 ± 23.1% | 33 ± 4.37% | 49.6 ± 7.82% | showed inhibitory effects on invasion of breast cancer cells | – | inhibition at 10 µM (cathepsin S; Homo sapiens, MDA-MB-231, 24 h, 10 μM, MDA-MB-231, 24 hours, RT-PCR, read-out: Inhibition rate of expression of cathepsin S (%)): 12 ± 0.35%
Cc1nc(NC(=O)CCCCl)c(C)c(C)c1O [Compound 8c, N-(5-hydroxy-3,4,6-trimethylpyridine-2-yl)-4-chlorobutaneamide] | 70.2 ± 4.6% | 24.7% | – | – | – | – | – | – | 27 ± 1.33% | –
Cc1nc(NC(=O)c2cccc3ccccc23)c(C)c(C)c1O [Compound 8p, N-(5-hydroxy-3,4,6-trimethylpyridine-2-yl)-1-naphthamide] | 75.8 ± 5.4% | 64.9% | – | – | – | – | – | – | 44 ± 2.47% | –
Cc1nc(NC(=O)C(C)(C)C)c(C)c(C)c1O [Compound 8f, N-(5-hydroxy-3,4,6-trimethylpyridine-2-yl)pivalamide] | 73.2 ± 6.4% | 37.5% | – | – | – | – | – | – | 16.4 ± 0.12% | –
N-(5-hydroxy-3,4,6-trimethylpyridine-2-yl)isobutyryl amide [Compound 8d] | – | – | – | – | – | – | – | – | – | Inhibitory rates (%) [1]: 53.2 ± 11.5 %; Inhibitory rates (%) (HT-29 cells / U937 cells): 52.3* %; Inhibition rate of expression of cathepsin S (%) (cathepsin S; [4]): 33 ± 1.23%
Cc1nc(N)c(C)c(C)c1O [BJ-1101, 6-amino-2,4,5-trimethylpyridine-3-ol] | – | – | 3.3 ± 0.82% | 0.45 ± 15.6% | 0% | 0.3 ± 31.8% | 1.73 ± 22.7% | no inhibitory effects on invasion of breast cancer cells | – | effects for reducing expression of cathepsin S genes (in words) (cathepsin S): no effects for reducing expression of cathepsin S genes
CCC(C(=O)Nc1nc(C)c(O)c(C)c1C)c1ccccc1 (stereo not shown) [Compound 8t, N-(5-hydroxy-3,4,6-trimethylpyridine-2-yl)-2-phenyl butanamide] | – | – | – | – | – | – | – | – | – | Inhibitory rates (%) (HT-29 cells / U937 cells): 23.6* %; Inhibition rate of expression of cathepsin S (%) (cathepsin S; [4]): 8.2 ± 0.43%
Cc1nc(NC(=O)c2ccc(C(C)(C)C)cc2)c(C)c(C)c1O [Compound 8n, N-(5-hydroxy-3,4,6-trimethylpyridine-2-yl)-4-(tert-butyl)benzamide] | 74.2 ± 7% | 22.5% | – | – | – | – | – | – | 8 ± 0.41% | –
